Reference: publication PMC7296167, “SrrB, a Pseudo-Receptor Protein, Acts as a Negative Regulator for Lankacidin and Lankamycin Production in Streptomyces rochei” (Frontiers in Microbiology, 2020)

Key:
SrrA = molecular target: T1, SrrA (Streptomyces rochei, UniProt Q83X22); assay: gel shift assay, dissociation from […]-labelled srrB probe B1 and srrY probe Y1; type: binding; conditions: […] SRB1 on probe B1, concentration series on probe Y1; […] SrrA, […] probe, […] C, pH […]
T1 construct: recombinant, overexpressed in E. coli, prepared as in Yamamoto et al. 2008
T1 sequence (Q83X22 1-222): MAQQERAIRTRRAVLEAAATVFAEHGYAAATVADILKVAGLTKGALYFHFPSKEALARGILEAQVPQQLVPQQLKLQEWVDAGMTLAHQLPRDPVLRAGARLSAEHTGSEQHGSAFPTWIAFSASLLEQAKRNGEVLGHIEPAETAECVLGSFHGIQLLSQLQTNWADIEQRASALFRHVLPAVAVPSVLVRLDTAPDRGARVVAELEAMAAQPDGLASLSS

SrrB = molecular target: T2, SrrB (Streptomyces rochei, UniProt Q83X25); assay: gel shift assay, dissociation from […]-labelled srrY promoter probe Y1; type: binding; conditions: 0.5 nM probe Y1, 2,000 nM SrrB, 26 C, pH 8.0; DNA release read-out
T2 construct: pET32b(+) His6 fusion from E. coli BL21(DE3)pLysS; N-terminal tag removed with enterokinase
T2 sequence (Q83X25 1-228): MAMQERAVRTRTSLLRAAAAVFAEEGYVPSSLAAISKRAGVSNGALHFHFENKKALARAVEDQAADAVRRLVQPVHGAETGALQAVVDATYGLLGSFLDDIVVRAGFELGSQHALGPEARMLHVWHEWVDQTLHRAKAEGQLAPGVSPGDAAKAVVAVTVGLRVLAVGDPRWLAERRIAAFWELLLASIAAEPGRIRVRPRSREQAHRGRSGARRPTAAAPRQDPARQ

Q: How did the “gel shift assay, dissociation from 32P-labelled srrB probe B1 and srrY probe Y1” value (SrrA) turn out when CC1=C([C@H](O)CCCCC(=O)CC(C)C)C(=O)OC1O (some centres unmarked) [compound 7, SRB1] was run?
A: Addition of SRB led to dissociation of SrrA from probe B1

Q: What about the “concentration required for dissociation” value (SrrB) of the same compound?
A: 1 mM
